Results as given in patent publication US20120046261A1, “COMPOSITIONS AND METHODS FOR DIAGNOSING AND PREVENTING SPONTANEOUS PRETERM BIRTH” (UNIVERSITY OF UTAH RESEARCH FOUNDATION, priority 2009, published 2012).
“Also recorded” adds a separate entry of the source.

Test system: women with prior spontaneous preterm birth
Assay: Multicenter, prospective, double-blind study of 17P vs. placebo for prevention of recurrent SPTB, secondary analysis by hPR genotype
Assay type: in vivo, human
Protocol: The goal of this study was to assess if women with single nucleotide polymorphisms (SNPs) in the human progesterone receptor (hPR) are more or less likely to respond to 17P for the prevention of recurrent SPTB. This study involved secondary analysis of 463 women enrolled in a multicenter, prospective, double-blind study of 17P vs. placebo for the prevention of recurrent SPTB.
Of 463 patients randomized in the original study, 459 were analyzed. Two thirds of women were randomized to 17P and one third were randomized to placebo. Of those patients who received 17P, 111, or 36%, delivered preterm less than 37 weeks, and 195, or 64%, delivered at term. Among those patients who received placebo, the preterm birth rate was higher, as 55% of women delivered preterm. During summer 2008, DNA was extracted from stored saliva samples. […]
20 SNPs in the hPR gene were selected to encompass the large progesterone receptor haplotype block. The 389 individuals with DNA available were then genotyped using TaqMan chemistry with established primers. Allele and genotype frequencies were calculated and evaluated for evidence of genetic predisposition to 17P response. Women were stratified by self-reported race. Primary outcomes evaluated were preterm birth<37 and <32 weeks
Regression was used to assess for an interaction between genotype, treatment, and clinical outcomes. Models controlled for number of prior spontaneous preterm births, smoking, and pre-pregnancy body mass index.
Dominant and recessive models of inheritance were used in this study (see Table 2 above). The dominant model assumes that having at least one copy of the minor allele is sufficient for disease. Patients homozygous for the minor allele and heterozygous patients with one minor allele are grouped together; here “little a/little a” and “Big A/little a” are compared with those homozygous for the major allele, “Big A/Big A.” The recessive model assumes that two copies of the minor allele are needed for disease. Here, those patients who are homozygous for the minor allele “little a/little a” are compared against the others.
Outcomes were available on 459 of the original 463 patients enrolled in the study. The study population of 389 patients was representative of the original cohort (see Table 3 below). The majority of patients in the cohort were African-American. Two-thirds of patients in the cohort received 17P. Furthermore, a similar proportion of patients delivered preterm less than 37 weeks and very preterm, less than 32 weeks, in the cohort when compared to the original study. Additionally, 21.1% of patients smoked during pregnancy. All patients had at least one prior spontaneous preterm birth in order to qualify for the original study. 28% of patients had 2 or more prior spontaneous preterm deliveries. The average pre-pregnancy body mass index was 26.7 kilograms per meter squared.

[1] = all patients who received 17P, original study cohort (459 analyzed)

CCCCCC(=O)O[C@]1(C(C)=O)CC[C@H]2[C@@H]3CCC4=CC(=O)CC[C@]4(C)[C@H]3CC[C@@]21C [17P, 17 alpha-hydroxyprogesterone caproate]
percentage of patients delivering preterm <37 weeks (African Americans, rs471767 AA genotype (homozygous major allele), receiving 17P, placebo nearly 60%): 21% | percentage of patients delivering preterm <37 weeks (African Americans, rs471767 at least one minor allele (G; AG and GG), receiving 17P): under 40% | rate of prematurity (SPTB) (African Americans, rs578029 at least one major allele (T), receiving 17P, placebo approximately 55%): 25% | reduction in preterm birth rates with 17P (African Americans, rs578029 homozygous for the minor allele (A)): no reduction | patients who delivered at term [1]: 64% | patients who delivered preterm less than 37 weeks [1]: 36% | rate of preterm birth <32 weeks gestation (non-African American (Caucasian/Hispanic), rs666553 at least one minor allele (T), receiving 17P, placebo 26.7%): 3.4% | reduction in prematurity (<32 weeks) with 17P (non-African American (Caucasian/Hispanic), rs666553 homozygous for the major allele): do not experience any reduction; also recorded: did not experience any reduction | rate of preterm birth <32 weeks gestation (non-African American, rs503362 at least one minor allele (C), receiving 17P, placebo 17.4%): 2.6% | reduction in the rate of prematurity (<32 weeks) when receiving 17P (non-African American, rs503362 homozygous for the major allele (G)): did not have a reduction
